The test deals with human FXR (NR1H4) (Homo sapiens (Human), UniProt Q96RI1). The test is described as follows: Human FXR (NR1H4) Assay (Gal4 promoter driven luciferase reporter, Indigo Bioscience kit IB00601). In kind it is cell-based. As to conditions: for Efficacy (%): efficacy normalized to CDCA set as 100%; for EC50: potency ranges. The method in brief: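 CHO reporter cells expressing human FXR with Gal4-driven, FXR-responsive luciferase treated with compound doses (0.2% DMSO) for 22 hours at 37° C. Luciferase luminescence then measured as surrogate of FXR activation for potency and efficacy.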
Chain of human FXR (NR1H4) (Q96RI1 whole entry, the tested form may be a part): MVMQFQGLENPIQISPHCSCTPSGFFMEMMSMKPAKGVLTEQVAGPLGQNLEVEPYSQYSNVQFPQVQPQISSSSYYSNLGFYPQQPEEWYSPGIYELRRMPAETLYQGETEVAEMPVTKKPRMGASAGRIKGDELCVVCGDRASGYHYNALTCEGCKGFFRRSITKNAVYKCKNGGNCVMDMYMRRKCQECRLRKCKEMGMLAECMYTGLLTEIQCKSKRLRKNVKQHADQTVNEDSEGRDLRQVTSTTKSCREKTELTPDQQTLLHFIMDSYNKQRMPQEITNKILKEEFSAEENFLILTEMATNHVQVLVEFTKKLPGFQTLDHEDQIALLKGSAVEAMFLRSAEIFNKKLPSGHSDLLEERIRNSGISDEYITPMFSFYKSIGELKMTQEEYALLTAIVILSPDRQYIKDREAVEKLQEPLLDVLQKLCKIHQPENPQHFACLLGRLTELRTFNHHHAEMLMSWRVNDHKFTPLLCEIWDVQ

As a reminder, the EC50 is the midpoint of the concentration-response curve.

Structures are written as SMILES.

For the compound `CC[C@H]1[C@@H](O)[C@@H]2[C@H](CC[C@]3(C)[C@@H]([C@H](C)CCNC(=O)NS(=O)(=O)NC)CC[C@@H]23)[C@@]2(C)CC[C@@H](OC(=O)C(F)(F)F)C[C@@H]12` [Example 126], the “Efficacy (%)” value is on record as 238% and the EC50 was 1 to 10 µM.
In the same order, the values of `CC[C@H]1[C@@H](O)[C@@H]2[C@H](CC[C@]3(C)[C@@H]([C@H](C)CCNS(=O)(=O)CC(=O)O)CC[C@@H]23)[C@@]2(C)CC[C@@H](O)C[C@@H]12` [Example 132] are 7% and 1 to 10 µM.

The values above are taken from patent publication US10208081B2, “Bile acid derivatives as FXR/TGR5 agonists and methods of use thereof” (Enanta Pharmaceuticals, Inc., priority 2014, dated 2019).
